In this assay the target is T1, recombinant human renin (Homo sapiens, UniProt P00797).
T1 sequence (P00797 67-406): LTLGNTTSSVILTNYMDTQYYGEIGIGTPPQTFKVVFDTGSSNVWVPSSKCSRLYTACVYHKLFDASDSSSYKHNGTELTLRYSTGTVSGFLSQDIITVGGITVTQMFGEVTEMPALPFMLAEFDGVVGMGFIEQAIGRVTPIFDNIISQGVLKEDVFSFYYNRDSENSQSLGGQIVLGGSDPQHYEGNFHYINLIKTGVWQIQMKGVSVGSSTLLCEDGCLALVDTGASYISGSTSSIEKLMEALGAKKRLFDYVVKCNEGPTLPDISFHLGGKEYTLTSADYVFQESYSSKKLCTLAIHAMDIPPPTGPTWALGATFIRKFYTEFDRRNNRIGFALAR
In words: Primary renin inhibition assay: IC50 in buffer, 384 well MTP (AngI measured by EIA). In kind it is biochemical. As to conditions: human tetradecapeptide (1-14) substrate, incubated at 37° C. for 3 h, AngI quantified by EIA. On the procedure: 1. Enzyme Immuno Assay (EIA) to Estimate AngI Accumulation and Renin Inhibition
1.1 Preparation of AngI-BSA Conjugate
1.3 mg (1 μmol) of AngI [1-10 (Bachem, H-1680)] and 17 mg (0.26 μmol) of BSA (Fluka, 05475) were dissolved in 4 mL of 0.1M phosphate buffer, pH 7.4, after which 2 mL of a 1:100 dilution of glutaraldehyde in H2O (Sigma G-5882) was added dropwise. The mixture was incubated overnight at 4° C., then dialyzed against 2 liters of 0.9% NaCl, twice for 4 h at rt, followed by dialysis against 2 liters of PBS 1× overnight at rt. The solution was then filtered with a Syringe filter, 0.45 μm (Nalgene, Cat. No. 194-2545). The conjugate can be stored in polypropylene tubes in 0.05% sodium azide at 4° C. for at least 12 months.
1.2 Preparation of BSA-AngI Coated MTP
Microtiter plates (MPT384, MaxiSorp™, Nunc) were incubated overnight at 4° C. with 80 μl of AngI (1-10)/BSA conjugate, diluted 1:100'000 in PBS 1× in a teflon beaker (exact dilution dependent on batch of conjugate), emptied, filled with 90 μl of blocking solution [0.5% BSA (Sigma A-2153) in PBS 1×, 0.02% NaN3], and incubated for at least 2 h at rt, or overnight at 4° C. 96 well MTP (MaxiSorp™, Nunc) were coated with 200 μl conjugate and blocked with 250 μl blocking solution as above, except that the blocking solution contained 3% BSA. The plates can be stored in blocking solution at 4° C. for 1 month.
1.3 AngI-EIA in 384 Well MTP
The AngI (1-10)/BSA coated MTP were washed 3 times with wash buffer (PBS 1×, 0.01% Tween 20) and filled with 75 μl of primary antibody solution (anti-AngI antiserum, pre-diluted 1:10 in horse serum), diluted to a final concentration of 1:100'000 in assay buffer (PBS 1×, 1 mM EDTA, 0.1% BSA, pH 7.4). 5 μl of the renin reaction (or standards in assay buffer) (see below) were added to the primary antibody solution and the plates were incubated overnight at 4° C. After the incubation the plates were washed 3 times with wash buffer and incubated with secondary antibody [anti-rabbit IgG, linked to horseradish peroxidase (Amersham Bioscience, NA 934V), diluted 1:2'000 in wash buffer] for 2 h at rt. The plates were washed 3 times with wash buffer and then incubated for 1 h at rt with substrate solution [1.89 mM ABTS (2,2′-azino-di-(3-ethyl-benzthiazolinsulfonate)] (Roche Diagnostics, 102 946) and 2.36 mM H2O2 [30%, (Fluka, 95300] in substrate buffer (0.1M sodium acetate, 0.05M sodium dihydrogen phosphate, pH 4.2). The OD of the plate was read at 405 nm in a microplate reader (FLUOStar Optima from BMG). The production of AngI during the renin reaction was quantified by comparing the OD of the sample with the OD of a standard curve of AngI(1-10), measured in parallel.
2. Primary Renin Inhibition Assay: IC50 in Buffer, 384 Well MTP
The renin assay was adapted from an assay described before (Fischli W. et al., Hypertension, 1991, 18:22-31) and consists of two steps: in the first step, recombinant human renin is incubated with its substrate (commercial human tetradecapeptide renin substrate) to create the product Angiotensin I (AngI). In the second step, the accumulated AngI is measured by an immunological assay (enzyme immuno assay, EIA). The detailed description of this assay is found below. The EIA is very sensitive and well suited for renin activity measurements in buffer or in plasma. Due to the low concentration of renin used in this assay (2 fmol per assay tube or 10 pM) it is possible to measure inhibitor affinities in this primary assay down to low pM concentration.
Recombinant human renin (3 pg/μl) in assay buffer (PBS 1×, 1 mM EDTA, 0.1% BSA, pH 7.4), human tetradecapeptide (1-14) substrate (Bachem, M-1120) [5 μM in 10 mM HCl], hydroxyquinoline sulfate (Fluka, 55100) [30 mM in H2O] and assay buffer were premixed at 4° C. at a ratio of 100:30:10:145. 47.5 μl per well of this premix was transferred into polypropylene plates (MTP384, Nunc). […]

Where a name gives a salt, the structure may show the parent alone.

Take `COCCCc1ccc(Cl)c(CN(C(=O)C2=C(c3ccc(CCOc4c(Cl)cc(C)cc4Cl)cc3)C[C@@H]3CNC[C@H]2N3)C2CC2)c1` (racemic) [Example 1, (rac.)-(1R*,5S*)-7-{4-[2-(2,6-Dichloro-4-methyl-phenoxy)-ethyl]-phenyl}-3,9-diaza-bicyclo[3.3.1]non-6-ene-6-carboxylic acid [2-chloro-5-(3-methoxy-propyl)-benzyl]-cyclopropyl-amide]: the IC50 amounted to 0.2 nM.

Consider `COCCCc1ccc(Cl)c(CN(C(=O)C2=C(c3ccc(OCCOc4c(Cl)cc(C)cc4Cl)cc3)C[C@@H]3CNC[C@H]2N3)C2CC2)c1` [Example 4, (1R,5S)-7-{4-[2-(2,6-Dichloro-4-methyl-phenoxy)-ethoxy]-phenyl}-3,9-diaza-bicyclo[3.3.1]non-6-ene-6-carboxylic acid [2-chloro-5-(3-methoxy-propyl)-benzyl]-cyclopropyl-amide], for which the IC50 came out at 0.2 nM.

In the case of `COCCCc1ccc(Cl)c(CN(C(=O)C2=C(c3ccc(OCCOc4c(Cl)cc(C)cc4Cl)cc3)C[C@@H]3CN(C(=N)N)C[C@H]2N3)C2CC2)c1` [Example 11, (1R,5S)-3-Carbamimidoyl-7-{4-[2-(2,6-dichloro-4-methyl-phenoxy)-ethoxy]-phenyl}-3,9-diaza-bicyclo[3.3.1]non-6-ene-6-carboxylic acid cyclopropyl-[2-chloro-5-(3-methoxy-propyl)-benzyl]-amide Hydrochloride Salt], the IC50 turned out to be 0.3 nM.

As for `COCCCc1ccc(Cl)c(CN(C(=O)C2=C(c3ccc(OCCOc4c(Cl)cc(C)cc4Cl)cc3)C[C@@H]3CN(C(=O)NC4CC4)C[C@H]2N3)C2CC2)c1` [Example 13, (1R,5S)-7-{4-[2-(2,6-Dichloro-4-methyl-phenoxy)-ethoxy]-phenyl}-3,9-diaza-bicyclo[3.3.1]non-6-ene-3,6-dicarboxylic acid 3-cyclopropylamide 6-{cyclopropyl-[2-chloro-5-(3-methoxy-propyl)-benzyl]-amide}], the IC50 is 0.8 nM.

In the case of `COCCCc1ccc(Cl)c(CN(C(=O)C2=C(c3ccc(OCCOc4c(Cl)cc(C)cc4Cl)nc3)CCNC2)C2CC2)c1` [Example 18, 6-[2-(2,6-Dichloro-4-methyl-phenoxy)-ethoxy]-1′,2′,5′,6′-tetrahydro-[3,4′]bipyridinyl-3′-carboxylic acid [2-chloro-5-(3-methoxy-propyl)-benzyl]-cyclopropyl-amide], the IC50 stood at 0.5 nM.

Turning to `COCCc1ccc(Cl)c(CN(C(=O)[C@@H]2[C@@H](c3ccc(OCCOc4c(Cl)cc(C)cc4Cl)cc3)C[C@@H]3CC[C@H]2N3)C2CC2)c1` [Example 26, (1R,2R,3S,5S)-3-{4-[2-(2,6-Dichloro-4-methyl-phenoxy)-ethoxy]-phenyl}-8-aza-bicyclo[3.2.1]octane-2-carboxylic acid [2-chloro-5-(2-methoxy-ethyl)-benzyl]-cyclopropyl-amide], the IC50 stood at 0.14 nM.

With `COCCCc1cc(CN(C(=O)C2=C(c3ccc(OCc4cc(-c5c(F)ccc(F)c5Cl)no4)cc3)CCNC2)C2CC2)c(Cl)cn1` [Example 34, 4-{4-[3-(2-Chloro-3,6-difluoro-phenyl)-isoxazol-5-ylmethoxy]-phenyl}-1,2,5,6-tetrahydro-pyridine-3-carboxylic acid [5-chloro-2-(3-methoxy-propyl)-pyridin-4-ylmethyl]-cyclopropyl-amide], the IC50 was determined as 0.1 nM.

Regarding `COCCCc1cc(CN(C(=O)C2=C(c3ccc(OCCOc4c(Cl)cc(C)cc4Cl)nc3)C[C@@H]3CNC[C@H]2N3)C2CC2)c(Cl)cn1` [Example 42, (1R,5S)-7-{6-[2-(2,6-Dichloro-4-methyl-phenoxy)-ethoxy]-pyridin-3-yl}-3,9-diaza-bicyclo[3.3.1]non-6-ene-6-carboxylic acid [5-chloro-2-(3-methoxy-propyl)-pyridin-4-ylmethyl]-cyclopropyl-amide], the IC50 was found to be 0.26 nM.

`COCCCc1ccc(Cl)c(CN(C(=O)C2=C(c3ccc(OCc4cc(-c5c(F)ccc(F)c5Cl)no4)cc3)C[C@@H]3CN(C(C)=O)C[C@H]2N3)C2CC2)c1` [Example 50, (1R,5S)-3-Acetyl-7-{4-[3-(2-chloro-3,6-difluoro-phenyl)-isoxazol-5-ylmethoxy]-phenyl}-3,9-diaza-bicyclo[3.3.1]non-6-ene-6-carboxylic acid [2-chloro-5-(3-methoxy-propyl)benzyl]-cyclopropyl-amide]: the IC50 turned out to be 0.24 nM.

As for `COCCc1ccc(Cl)c(CN(C(=O)[C@@H]2[C@@H](c3ccc(OCc4cc(-c5c(F)ccc(F)c5Cl)no4)cc3)C[C@@H]3CC[C@H]2N3)C2CC2)c1` [Example 60, (1R,2R,3S,5S)-3-{4-[3-(2-Chloro-3,6-difluoro-phenyl)isoxazol-5-ylmethoxy]-phenyl}-8-aza-bicyclo[3.2.1]octane-2-carboxylic acid [2-chloro-5-(2-methoxy-ethyl)benzyl]-cyclopropyl-amide], the IC50 was 0.26 nM.

For the compound `Cc1cc(Cl)c(O[C@@H]2CCN(c3ccc([C@H]4CCNC[C@@H]4C(=O)N(Cc4cc(CNC(=O)CC(F)(F)F)ccc4Cl)C4CC4)cn3)C2)c(Cl)c1` [Example 67, (3′R,4′S)-6-[(R)-3-(2,6-Dichloro-4-methyl-phenoxy)-pyrrolidin-1-yl]-1′,2′,3′,4′,5′,6′-hexahydro-[3,4′]bipyridinyl-3′-carboxylic acid {2-chloro-5-[(3,3,3-trifluoro-propionylamino)-methyl]-benzyl}-cyclopropyl-amide], the IC50 is 0.63 nM.

For `O=C([C@H]1CNCC[C@@H]1c1ccc(OCc2cc(-c3c(F)ccc(F)c3Cl)no2)cc1)N(Cc1cc(CNCC(F)F)ccc1Cl)C1CC1` [Example 77, (3R,4S)-4-{4-[3-(2-Chloro-3,6-difluoro-phenyl)isoxazol-5-ylmethoxy]-phenyl}-piperidine-3-carboxylic acid {2-chloro-5-[(2,2-difluoro-ethylamino)-methyl]-benzyl}-cyclopropyl-amide], the IC50 came to 0.22 nM.

As to `O=C(NCc1ccc(Cl)c(CN(C(=O)[C@H]2CNCC[C@@H]2c2ccc(OCc3cc(-c4c(F)ccc(F)c4Cl)no3)cc2)C2CC2)c1)C1CC1` [Example 83, (3R,4S)-4-{4-[3-(2-Chloro-3,6-difluoro-phenyl)-isoxazol-5-ylmethoxy]-phenyl}-piperidine-3-carboxylic acid {2-chloro-5-[(cyclopropanecarbonyl-amino)-methyl]-benzyl}-cyclopropyl-amide], the IC50 came to 0.18 nM.

These data come from patent US7968720B2, “Secondary amines as renin inhibitors” (Actelion Pharmaceuticals Ltd., priority 2006, dated 2011).
